Test results taken from paper PMC8880714, “Antimicrobial effect and mechanism of bovine lactoferrin against the potato common scab pathogen Streptomyces scabiei” (PLoS ONE, 2022).
Read-outs that look alike come from different tables or passages of the source. One block for each compound: values may come before it. Where no end group is shown, it is not given here.

How the values were obtained:
[1] = pH of the medium in which the substance was dissolved; assay type: physicochemical
Description: On the contrary, in the assay of Trp alone at high concentrations, because Trp cannot bind to the cell surface by itself, only a few numbers could reach the membrane (Fig 8C). In summary, Trp must reach the cell membrane to exert its antimicrobial activity. We speculated that the change in the chemical structures and properties of Arg and Trp may affect their antimicrobial activity, that is, the ability to bind to the bacterial cell surface. Therefore, we used Arg and Trp derivatives, namely arginine hydrochloride, tryptophan methyl ester hydrochloride, and tryptophan ethyl ester hydrochloride, which are easily available. Intriguingly, arginine hydrochloride completely lost the antimicrobial activity against S. scabiei shown by Arg (Fig 7A and 7C). Sephai et al. (2017) reported that the antimicrobial activity of poly-arginine is influenced by pH; at mild acidic pH (5 and 6), its MIC values decreased. We measured the pH of the medium in which arginine or arginine hydrochloride was dissolved and found it to be 9.5 and 5.5, respectively. Streptomyces spp. can grow at pH values ranging from 4.0 to 11.5 [63]. Teichoic and lipoteichoic acids in gram-positive bacterial cell walls are esterified to D-Ala residues and at neutral or lower pH, the amino group of D-Ala (pKa 8.42) is protonated, conferring a neutral or positive charge to the cell walls. […]

[2] = tested on: Streptomyces scabiei S58; assay: microbe, parasite or virus in culture; assay type: cell-based
Protocol: S. scabiei S58, isolated from potatoes grown in Kagoshima, Japan, was used in this study. […] For antimicrobial assays, the spores of the isolate were incubated at 28 °C in tryptic soy broth (TSB) (Becton Dickinson, Sparks, USA). Escherichia coli strains JM109 and BL21(λDE3) were grown at 37 °C in Luria-Bertani broth supplemented with 100 μg/mL ampicillin for propagation.
A 12-well plate was used to assess the antimicrobial activity of LF, hydrolysate, LFcinB, and synthetic peptides. One milliliter of TSB containing each test substance was added to each well and then the spores of S. scabiei S58, prepared as described above, were added into each well at a final concentration of 2 × 10^5 spores/mL. The mixture was incubated at 28 °C for 72 h, and the absorbance was measured at 600 nm to monitor bacterial growth. To further confirm whether the antimicrobial activity is due to growth inhibition or bactericidal effect, 1 mL of TSB containing 2 ×10^3 spores and bLF (1 mg/mL) was incubated at 28 °C and directly cultured on STA after 5, 10, 15, 24, 48, and 72 h of incubation to count the emerging colonies. All assays were performed in duplicate and were repeated three times.

[3] = spores 2 × 10^5/mL, TSB, 28 °C, 72 h, absorbance 600 nm
[4] = S. scabiei S58 spores 2 × 10^5/mL, TSB, 28 °C, 72 h, absorbance 600 nm, probit analysis, mean ± SD, n = 3, N/A = no antimicrobial activity, read-out: Antimicrobial activity (IC50)

Compound: Cl.N=C(N)NCCC[C@H](N)C(=O)O [Arginine hydrochloride]
pH of the medium in which the substance was dissolved [1]: 5.5 | Antimicrobial activity, in words [2, 3]: complete loss of activity

Compound: N=C(N)NCCC[C@H](N)C(=O)O [Arginine]
pH of the medium in which the substance was dissolved [1]: 9.5 | IC50 ([2]; Streptomyces scabiei, S58, 72 h, read-out: Antimicrobial activity (IC50)): 14.3 ± 1.4 mM | Concentration necessary to completely inhibit the growth of S. scabiei [2, 3]: 40 mM

Compound: CC[C@H](C)[C@@H]1NC(=O)[C@H](CO)NC(=O)[C@@H]2CCCN2C(=O)[C@H](C)NC(=O)CNC(=O)[C@H](CC(C)C)NC(=O)[C@H](CCCCN)NC(=O)[C@H](CCCCN)NC(=O)[C@H](CCSC)NC(=O)[C@H](CCCNC(=N)N)NC(=O)[C@H](Cc2c[nH]c3ccccc23)NC(=O)[C@H](CCC(N)=O)NC(=O)[C@H](Cc2c[nH]c3ccccc23)NC(=O)[C@H](CCCNC(=N)N)NC(=O)[C@H](CCCNC(=N)N)NC(=O)[C@@H](NC(=O)[C@H](CCCCN)NC(=O)[C@@H](N)Cc2ccccc2)CSSC[C@@H](C(=O)N[C@H](C(=O)N[C@@H](CCCNC(=N)N)C(=O)N[C@@H](CCCNC(=N)N)C(=O)N[C@@H](C)C(=O)N[C@@H](Cc2ccccc2)C(=O)O)C(C)C)NC(=O)[C@H]([C@@H](C)O)NC1=O [Bovine lactoferricin (LFcinB)]
Concentration at which no growth of S. scabiei was observed [2, 3]: 3.2 µM

IC50 [2, 4]: 1.303 ± 0.004 mM
Compound: CCOC(=O)[C@@H](N)Cc1c[nH]c2ccccc12.Cl [Tryptophan ethyl ester hydrochloride]
Antimicrobial activity, in words [2, 3]: much higher activity than that of tryptophan

IC50 [2, 4]: 2.86 ± 0.326 mM
Compound: COC(=O)[C@@H](N)Cc1c[nH]c2ccccc12.Cl [Tryptophan methyl ester hydrochloride]
Antimicrobial activity, in words [2, 3]: much higher activity than that of tryptophan

Compound: N[C@@H](Cc1c[nH]c2ccccc12)C(=O)O [Tryptophan]
inhibition at 40000 µM ([2]; Streptomyces scabiei, S58, read-out: Inhibition of growth of S. scabiei): 40%

Compound: QQWWWQ [Synthetic peptide containing three Trp residues and no Arg residue]
Antimicrobial activity, in words [2, 3]: complete loss of activity

Compound: RRRQRR [Synthetic peptide containing no Trp residue]
Antimicrobial activity, in words [2, 3]: completely lost its activity

IC50 ([2]; 72 h): 0.048 ± 0.009 mM
Compound: RRWQWR [RRWQWR]

IC50 ([2]; 72 h): 0.027 ± 0.002 mM
Compound: RRWWWR [RRWWWR]
